IC50 data for 22 compounds are collected here from patent publication US20160052898A1, “NOVEL COMPOUNDS” (BAYER PHARMA AKTIENGESELLSCHAFT, priority 2013, published 2016).

Assay [1] relates to constitutive active colorectal cancer cell (CRC) Wnt pathway. Kind of assay: HCT116 Super TopFlash cellular reporter assay (constitutive active Wnt pathway). The class given is cell-based. Conditions: HCT116 TOP reporter cells, luciferase expression, 36 hours incubation, 50 μM to 15 nM. Here is the method:
In order to discover and characterize small molecules which inhibit the constitutive active colorectal cancer cell (CRC) Wnt pathway, a cellular reporter assay was employed. The corresponding assay cell was generated by transfection of the colorectal cancer cell line HCT116 (ATCC, #CCL-247) with the Super TopFlash vector (Morin, Science 275, 1997, 1787-1790; Molenaar et al., Cell 86 (3), 1996, 391-399). The HCT116 cell line is cultivated at 37° C. and 5% CO2 in DMEM/F-12 (Life Technologies, #11320-074), supplemented with 2 mM glutamine, 20 mM HEPES, 1.4 mM pyruvate, 0.15% Na-bicarbonate and 10% foetal bovine serum (GIBCO, #10270), this cancer cell line is pathophysiological relevant since it carries a deletion of position S45 in the β-catenin gene, leading to constitutive active Wnt signaling. Stable transfectants were generated by cotransfection with pcDNA3 and selection of stable transfected cells with 1 mg/ml G418.
(§1) In a parallel approach, HCT116 cells were cotransfected with the FOP control vector and pcDNA3. The FOP vector is identical to the TOP construct, but it contains instead of functional TCF elements a randomized, non-functional sequence. For this transfection a stable transfected cell line was generated as well.
(§2) In preparation of the assay, the two cell lines were plated 24 hrs before at 10000 cells per well of a 384 micro titre plate (MTP) in 30 μL growth medium. Selective inhibitory activity for small molecules on the mutated Wnt pathway was determined after parallel incubation of both (TOP and FOP) HCT116 reporter cell lines with a compound dilution series from 50 μM to 15 nM in steps of 3.16-fold dilutions in CAFTY buffer (130 mM NaCl, 5 mM KCl, 20 mM HEPES, 1 mM MgCl2, 5 mM NaHCO3, pH 7.4) containing 2 mM Ca^2+ and 0.01% BSA. The compounds were thereby serially prediluted in 100% DMSO and thereafter in addition 50 fold into the CAFTY compound dilution buffer (described above). From this dilution 10 μL were added to the cells in 30 μL growth medium and incubated for 36 hours at 37° C. and 5% CO2. Thereafter luciferase assay buffer (1:1 mixture of luciferase substrate buffer (20 mM Tricine, 2.67 mM MgSO4, 0.1 mM EDTA, 4 mM DTT, 270 μM Coenzyme A, 470 μM Luciferin, 530 μM ATP, ph adjusted to pH 7.8 with a sufficient volume of 5M NaOH) and Triton buffer (30 mL Triton X-100, 115 mL glycerol, 308 mg Dithiothreitol, 4.45 g Na2HPO4.2 H2O, 3.03 g Tris.HCL, ad 1 l H20, pH 7.8) was added as equal volume to the compound solution on the cells to determine luciferase expression as a measure of Wnt signaling activity in a luminometer.

Assay [2] concerns HCT116 FOP control reporter cell line. Put plainly: HCT116 FOP control vector reporter assay (non-functional TCF elements). It is filed as cell-based. Conditions: HCT116 FOP control reporter cells, luciferase expression, 36 hours incubation, 50 μM to 15 nM, read-out: HCT116 FOPFlash IC50. Here is the method:
as §1, §2

Like-named read-outs stand apart in the source and are kept apart here.

For the compound `CCC(C(=O)Nc1cc(C(=O)Nc2ccc(-c3ccccc3)cc2)ccc1OC)N1CCOCC1` (single isomer, unassigned) [Example 131, N-(biphenyl-4-yl)-4-methoxy-3-{[(2R*)-2-(morpholin-4-yl)butanoyl)amino} benzamide], the IC50 was 174 nM in assay [1] (Homo sapiens, HCT-116, 36 h) and at least 50000 nM in assay [2] (Homo sapiens, HCT-116, 36 h).

As for `CCC(C(=O)Nc1cc(C(=O)Nc2ccc(-c3ccccc3)cc2)ccc1OC)N1CCOCC1` (single isomer, unassigned) [Example 132, N-(biphenyl-4-yl)-4-methoxy-3-{[(2S*)-2-(morpholin-4-yl)butanoyl]amino} benzamide], the half-inhibitory concentration (IC50) was 310 nM in assay [1] and at least 50000 nM in assay [2].

With `COCc1ccc(C(=O)Nc2ccc(-c3ccccc3)cc2)cc1NC(=O)C(C)N1CC2CCC(C1)O2` (single isomer, unassigned) [Example 146, N-(biphenyl-4-yl)-4-(methoxymethyl)-3-{[(2R*)-2-(8-oxa-3-azabicyclo[3.2.1]oct-3-yl)propanoyl)amino} benzamide], the IC50 is 9.98 nM in assay [1] (Homo sapiens, HCT-116, 36 h) and 27000 nM in assay [2] (Homo sapiens, HCT-116, 36 h).

On to `COCCOCc1ccc(C(=O)Nc2ccc(-c3ccccc3)cc2)cc1NC(=O)C(C)N1CCOCC1` (single isomer, unassigned) [Example 162, N-(biphenyl-4-yl)-4-[(2-methoxyethoxy)methyl]-3-{[(2R*)-2-(morpholin-4-yl)propanoyl)amino} benzamide], for which the IC50 in assay [1] (Homo sapiens, HCT-116, 36 h) stood at 103 nM; in assay [2] (Homo sapiens, HCT-116, 36 h), 10400 nM.

For `COCCCOCc1ccc(C(=O)Nc2ccc(-c3ccccc3)cc2)cc1NC(=O)C(C)N1CCOCC1` (single isomer, unassigned) [Example 166, N-(biphenyl-4-yl)-4-[(3-methoxypropoxy)methyl]-3-{[(2R*)-2-(morpholin-4-yl)propanoyl]amino} benzamide], the IC50 was 135 nM in assay [1] and 5400 nM in assay [2] (Homo sapiens, HCT-116, 36 h).

Consider `COCc1ccc(C(=O)Nc2ccc(-c3ccccc3)cc2)cc1NC(=O)C(C)N1CC2CCC(C1)O2` (single isomer, unassigned) [Example 167, N-(biphenyl-4-yl)-4-(methoxymethyl)-3-{[(2S*)-2-(8-oxa-3-azabicyclo[3.2.1]oct-3-yl)propanoyl]amino} benzamide], for which the IC50 in assay [1] (Homo sapiens, HCT-116, 36 h) came out at 139 nM; in assay [2] (Homo sapiens, HCT-116, 36 h), 41200 nM.

For the compound `COCc1ccc(C(=O)Nc2ccc(-c3ccccc3)cc2)cc1NC(=O)C(C)N1CCOCC1` (single isomer, unassigned) [Example 169, N-(biphenyl-4-yl)-4-(methoxymethyl)-3-{[(2R*)-2-(morpholin-4-yl)propanoyl]amino} benzamide], the 50% inhibitory concentration (IC50) in assay [1] (Homo sapiens, HCT-116, 36 h) was 154 nM; in assay [2] (Homo sapiens, HCT-116, 36 h) it was 10000 nM.

Turning to `CC(C(=O)Nc1cc(NC(=O)c2ccc(-c3ccccc3)cc2)ccc1C(F)(F)F)N1CCOCC1` (single isomer, unassigned) [Example 172, N-[3-{[(2R*)-2-(morpholin-4-yl)propanoyl]amino}-4-(trifluoromethyl)phenyl] biphenyl-4-carboxamide], the half-maximal inhibitory concentration (IC50) in assay [1] (Homo sapiens, HCT-116, 36 h) is 211 nM; in assay [2] (Homo sapiens, HCT-116, 36 h), at least 50000 nM.

On to `COCc1ccc(C(=O)Nc2ccc(-c3ccccc3)cc2)cc1NC(=O)C(C)N1CCOCC1` (single isomer, unassigned) [Example 173, N-(biphenyl-4-yl)-4-(methoxymethyl)-3-{[(2S*)-2-(morpholin-4-yl)propanoyl]amino} benzamide], for which the concentration for half-maximal inhibition (IC50) in assay [1] was 214 nM; in assay [2] it was 7500 nM.

`COCCOCc1ccc(C(=O)Nc2ccc(-c3ccccc3)cc2)cc1NC(=O)C(C)N1CCOCC1` (single isomer, unassigned) [Example 177, N-(biphenyl-4-yl)-4-[(2-methoxyethoxy)methyl)-3-{[(2S*)-2-(morpholin-4-yl)propanoyl)amino} benzamide]: the IC50 came out at 265 nM in assay [1] (Homo sapiens, HCT-116, 36 h) and 15000 nM in assay [2] (Homo sapiens, HCT-116, 36 h).

As for `COCCCOCc1ccc(C(=O)Nc2ccc(-c3ccccc3)cc2)cc1NC(=O)C(C)N1CCOCC1` (single isomer, unassigned) [Example 179, N-(biphenyl-4-yl)-4-[(3-methoxypropoxy)methyl]-3-{[(2S*)-2-(morpholin-4-yl)propanoyl]amino} benzamide], the concentration for half-maximal inhibition (IC50) in assay [1] turned out to be 300 nM; in assay [2], 7600 nM.

Take `CC(C(=O)Nc1cc(NC(=O)c2ccc(-c3ccccc3)cc2)ccc1C(F)(F)F)N1CCOCC1` (single isomer, unassigned) [Example 180, N-(3-{[(2S*)-2-(morpholin-4-yl)propanoyl]amino}-4-(trifluoromethyl)phenyl] biphenyl-4-carboxamide]: the IC50 in assay [1] was 301 nM; in assay [2], at least 50000 nM.

With `CC(C(=O)Nc1cc(NC(=O)c2ccc(-c3ccccc3)cc2)ccc1C(F)(F)F)N1CC2CCC(C1)O2` (single isomer, unassigned) [Example 182, N-[3-{[(2R*)-2-(8-oxa-3-azabicyclo[3.2.1]oct-3-yl)propanoyl]amino}-4-(trifluoromethyl)phenyl] biphenyl-4-carboxamide], the IC50 in assay [1] was 311 nM; in assay [2] (Homo sapiens, HCT-116, 36 h), at least 50000 nM.

For `O=C(Cn1cccn1)Nc1cc(C(=O)Nc2ccc(-c3ccccc3)cc2)ccc1C(F)(F)F` [Example 3, N-(biphenyl-4-yl)-3-[(1H-pyrazol-1-ylacetyl)amino]-4-(trifluoromethyl)benzamide], the IC50 in assay [1] (Homo sapiens, HCT-116, 36 h) is 430 nM; in assay [2] (Homo sapiens, HCT-116, 36 h), at least 50000 nM.

As to `COc1cc(Cl)c(C(=O)Nc2ccc(-c3ccccc3)cc2)cc1NC(=O)C(C)N1CCOCC1` (centres unmarked) [Example 5, N-(biphenyl-4-yl)-2-chloro-4-methoxy-5-{[2-(morpholin-4-yl)propanoyl]amino}benzamide], the IC50 in assay [1] (Homo sapiens, HCT-116, 36 h) is 507 nM; in assay [2] (Homo sapiens, HCT-116, 36 h) it was at least 50000 nM.

`COc1cc(Cl)c(C(=O)Nc2ccc(-c3ccccc3)cc2)cc1NC(=O)CN1CCOCC1` [Example 6, N-(biphenyl-4-yl)-2-chloro-4-methoxy-5-[(morpholin-4-ylacetyl)amino]benzamide]: the half-maximal inhibitory concentration (IC50) in assay [1] (Homo sapiens, HCT-116, 36 h) is 3920 nM; in assay [2] (Homo sapiens, HCT-116, 36 h) it was at least 50000 nM.

Turning to `O=C(CN1CC2CCC(C1)O2)Nc1cc(C(=O)Nc2ccc(-c3ccccc3)cc2)ccc1C(F)(F)F` [Example 10, N-(biphenyl-4-yl)-3-[(8-oxa-3-azabicyclo[3.2.1]oct-3-ylacetyl)amino]-4-(trifluoromethyl)benzamide], the IC50 was 170 nM in assay [1] (Homo sapiens, HCT-116, 36 h) and at least 50000 nM in assay [2] (Homo sapiens, HCT-116, 36 h).

Turning to `O=C(CN1C[C@@H]2C[C@H]1CO2)Nc1cc(C(=O)Nc2ccc(-c3ccccc3)cc2)ccc1C(F)(F)F` [Example 11, N-(biphenyl-4-yl)-3-{[(1S,4S)-2-oxa-5-azabicyclo[2.2.1]hept-5-ylacetyl]amino}-4-(trifluoromethyl)benzamide], the half-maximal inhibitory concentration (IC50) in assay [1] (Homo sapiens, HCT-116, 36 h) is 533 nM; in assay [2] (Homo sapiens, HCT-116, 36 h), at least 50000 nM.

On to `O=C(CN1CCOCC1)Nc1cc(C(=O)Nc2ccc(-c3ccccc3)cc2)ccc1-c1cccs1` [Example 19, N-(biphenyl-4-yl)-3-[(morpholin-4-ylacetyl)amino]-4-(2-thienyl)benzamide], for which the IC50 in assay [1] (Homo sapiens, HCT-116, 36 h) is 136 nM; in assay [2] (Homo sapiens, HCT-116, 36 h), at least 50000 nM.

For the compound `CN(C)C(=O)c1ccc(C(=O)Nc2ccc(-c3ccccc3)cc2)cc1NC(=O)CN1CCOCC1` [Example 21, N^4-(biphenyl-4-yl)-N^1,N^1-dimethyl-2-[(morpholin-4-ylacetyl)amino]terephthalamide], the IC50 in assay [1] (Homo sapiens, HCT-116, 36 h) worked out at 334 nM; in assay [2] (Homo sapiens, HCT-116, 36 h), 16500 nM.

With `O=C(CN1CCOCC1)Nc1cc(C(=O)Nc2ccc(-c3ccccc3)cc2)ccc1OCc1ccccc1` [Example 24, 4-(benzyloxy)-N-(biphenyl-4-yl)-3-[(morpholin-4-ylacetyl)amino]benzamide], the half-maximal inhibitory concentration (IC50) in assay [1] (Homo sapiens, HCT-116, 36 h) was 360 nM; in assay [2] (Homo sapiens, HCT-116, 36 h), at least 50000 nM.

Regarding `O=C(CN1CCOCC1)Nc1cc(NC(=O)c2ccc(-c3ccccc3)cc2)ccc1F` [Example 29, N-{4-fluoro-3-[(morpholin-4-ylacetyl)amino]phenyl}biphenyl-4-carboxamide], the IC50 in assay [1] (Homo sapiens, HCT-116, 36 h) is 2150 nM; in assay [2] (Homo sapiens, HCT-116, 36 h) it was at least 50000 nM.
